Source: patent publication US20100267753A1, “METHODS OF TREATING DISORDERS ASSOCIATED WITH PROTEIN KINASE CK2 ACTIVITY” (priority 2009, published 2010)
pIC50: −log10 of the molar value.

How the values were obtained:
IL-8 = IL-8 production in prostate cancer cells; format: cell-based
[1] = Pharmacokinetics in rat (IV bolus or oral dose); format: in vivo
Experimental: (§1) The pharmacokinetics properties of drugs were investigated in three species, following an intravenous (IV) bolus or oral (PO) dose of Compound K at the dosages indicated in the chart. Blood samples were collected at predetermined times and the plasma separated. Plasma was separated from the blood samples collected at 5, 15 and 30 minutes and 1, 2, 4, 8 and 24 hours post-dose.
(§2) Drug levels were quantified by the LC/MS/MS method described below. Noncompartmental pharmacokinetic analysis was applied for intravenous administration. A linear trapezoidal rule was used to compute AUC(0-24). The terminal t1/2 and C0 were calculated using the last three and the first three data points, respectively
(§3) Bioanalysis was performed using a Quattro Micro LC/MS/MS instrument in the MRM detection mode, with an internal standard (1S). Briefly, 15 μL plasma samples were prepared for analysis using protein precipitation with 120 μL of acetonitrile. The supernatants were transferred into a 96 well plate and subjected to LC-MS/MS analysis using a Phenomenex Polar-RP HPLC column. The mobile phases were 10 mM NH4HCO3 in water (Solution-A) and 10 mM NH4HCO3 in methanol (Solution-B). The column was initially equilibrated with 25% Solution-B and followed with 100% Solution B over 5 minutes. […] Quantitation of the analytes was performed in the batch mode with two bracketing calibration curves according to the bioanalytical sample list.

[2] = Pharmacokinetics in dog (IV bolus or oral dose); format: in vivo; conditions: for AUC(0-inf) / Cmax / half-life / Vd: plasma; for half-life: read-out: Terminal T1/2 (converted); for Vd: read-out: Vdss
Experimental: as §1, §2, §3

[3] = Pharmacokinetic summary across mouse, rat and dog; format: in vivo
Experimental: Particularly for chronic conditions, oral administration is preferred. Typical dosages for oral administration would be approximately 5-500 mg/kg per day.
For some embodiments, delivery of compound K by injection, such as intramuscular or intravenous, may be preferred. […] The dosage for injected delivery (IV) can be about half of the oral dosage since injection bypasses the absorption barriers that reduce oral bioavailability. For delivery by injection, lower doses such as 1-25 mg/kg per day may be used to achieve similar plasma levels of drug.

HIPK3 = HIPK3 (Homo sapiens, UniProt Q9H422); assay: Kinase panel IC-50, HIPK3; format: biochemical
Sequence of HIPK3 (Q9H422 whole entry, species assumed): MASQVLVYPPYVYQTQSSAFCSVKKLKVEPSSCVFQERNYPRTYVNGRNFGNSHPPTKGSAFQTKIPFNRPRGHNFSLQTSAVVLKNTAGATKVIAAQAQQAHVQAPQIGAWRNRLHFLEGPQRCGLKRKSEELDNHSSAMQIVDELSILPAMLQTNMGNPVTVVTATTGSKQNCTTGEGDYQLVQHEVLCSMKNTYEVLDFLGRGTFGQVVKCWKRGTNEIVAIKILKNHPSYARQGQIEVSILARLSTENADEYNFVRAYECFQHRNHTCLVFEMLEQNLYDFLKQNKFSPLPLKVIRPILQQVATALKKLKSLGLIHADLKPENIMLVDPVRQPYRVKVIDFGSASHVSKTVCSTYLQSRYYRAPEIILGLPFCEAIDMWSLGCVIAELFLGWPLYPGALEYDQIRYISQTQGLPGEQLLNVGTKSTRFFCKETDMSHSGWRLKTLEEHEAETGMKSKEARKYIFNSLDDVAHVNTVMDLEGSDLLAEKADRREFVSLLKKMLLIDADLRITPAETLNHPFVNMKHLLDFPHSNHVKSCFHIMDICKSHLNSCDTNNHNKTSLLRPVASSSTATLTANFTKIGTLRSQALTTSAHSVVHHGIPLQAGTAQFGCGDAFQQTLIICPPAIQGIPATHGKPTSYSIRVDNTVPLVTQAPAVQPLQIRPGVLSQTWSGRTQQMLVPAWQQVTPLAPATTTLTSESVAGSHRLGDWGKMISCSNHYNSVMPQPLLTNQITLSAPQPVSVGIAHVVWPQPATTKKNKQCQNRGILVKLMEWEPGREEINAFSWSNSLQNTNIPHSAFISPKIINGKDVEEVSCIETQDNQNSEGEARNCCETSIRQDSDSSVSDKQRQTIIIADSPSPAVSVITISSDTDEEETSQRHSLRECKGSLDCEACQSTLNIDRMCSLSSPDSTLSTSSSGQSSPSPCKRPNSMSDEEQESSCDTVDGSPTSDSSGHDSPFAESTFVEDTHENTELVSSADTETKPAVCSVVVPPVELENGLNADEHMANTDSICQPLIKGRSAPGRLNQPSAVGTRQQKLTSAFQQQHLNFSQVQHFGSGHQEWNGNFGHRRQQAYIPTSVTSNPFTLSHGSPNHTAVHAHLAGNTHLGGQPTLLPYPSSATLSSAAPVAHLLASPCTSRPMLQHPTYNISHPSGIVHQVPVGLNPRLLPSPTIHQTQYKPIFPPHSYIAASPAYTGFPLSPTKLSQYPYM

[4] = Dog, 1.6 mg/kg IV, different lot
[5] = Dog, 7.7 mg/kg PO, filled capsules, different lot
[6] = Dog, 8.2 mg/kg PO, filled capsules

O=C(O)c1ccc2c(c1)nc(Nc1cccc(Cl)c1)c1ccncc12 [Compound K, 5-(3-chlorophenylamino)benzo[c][2,6]naphthyridine-8-carboxylic acid]
IL-8 production (IL-8; ELISA (24 hr)): suppression of IL-8 production | IL-8 production (IL-8; qRT-PCR (8 hr)): suppression of IL-8 production | CLs ([1]; 5.2 mg/kg IV): 1.7 mL/min/kg | Terminal T1/2 ([1]; 5.2 mg/kg IV): 11.6 h | % F0-inf ([1]; 10.5 mg/kg PO): 47.8% | Cmax ([1]; plasma, 5.2 mg/kg IV): 38700 ng/mL | AUC(0-inf) ([1]; plasma, 5.2 mg/kg IV, 25 mM sodium phosphate buffer): 44300 ng·h/mL | Vd ([1]; plasma, 5.2 mg/kg IV, read-out: Vdss): 2 L/kg | Cmax ([1]; plasma, 10.5 mg/kg PO): 7370 ng/mL | AUC(0-inf) ([1]; plasma, 10.5 mg/kg PO, 25 mM phosphate buffer): 42300 ng·h/mL | half-life ([1]; plasma, 10.5 mg/kg PO, read-out: Terminal T1/2 (converted)): 12.3 h | CLs [2, 4]: 15 mL/min/kg | CLs ([2]; Dog, 1.9 mg/kg IV): 12 mL/min/kg | Terminal T1/2 ([2]; Dog, 1.9 mg/kg IV): 8.3 h | % F0-inf [2, 5]: 41.8% | % F0-inf [2, 6]: 51.5% | AUC(0-inf) ([2]; dog, iv, 1.6 mg/kg): 1640 ng·h/mL | AUC(0-inf) ([2]; dog, po, 7.7 mg/kg): 3440 ng·h/mL | Cmax [2, 4]: 4440 ng/mL | half-life [2, 4]: 8.3 h | Vd [2, 4]: 11.3 L/kg | Cmax ([2]; Dog, 1.9 mg/kg IV): 5780 ng/mL | AUC(0-inf) ([2]; Dog, 1.9 mg/kg IV, 25 mM sodium phosphate buffer): 2540 ng·h/mL | Vd ([2]; Dog, 1.9 mg/kg IV): 8.9 L/kg | Cmax [2, 5]: 2730 ng/mL | half-life [2, 5]: 9.9 h | AUC(0-inf) [2, 6]: 5650 ng·h/mL | Cmax [2, 6]: 2180 ng/mL | half-life [2, 6]: 5.2 h | bioavailability ([3]; plasma, po, rat and dog, administered orally): 20 to 50% | half-life ([3]; plasma, rat and dog, oral): 5 to 12 h | clearance rate in vivo ([3]; rat and dog): relatively low clearance rate | half-life ([3]; rat, dog, plasma, other: injected (such as intramuscular or intravenous), when injected): 5 to 12 h | pIC50 (HIPK3): 7.35
